Source: PubChem BioAssay AID248 (DTP/NCI, 2004)
Where “and” joins values, the source holds several entries; their conditions need not be identical. Identical values can stand only once. Toxic doses and inconclusive results are not listed. Cut-off read from the data, not from the text of the source: active = T/C of 150% or more; inactive = T/C below 125%.

Tested on: L1210 leukemia ip in BDF1 mice, survival T/C
Test: NCI In Vivo Anticancer Drug Screen. Data for tumor model L1210 Leukemia (intraperitoneal) in B6D2F1 (BDF1) mice
Settings: endpoint: mean survival time, higher = longer survival
In short: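 Tumor cells were implanted, animals were treated, and survival was followed. The result divides the treated measurement by the vehicle-control measurement.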

[1] = dose: 50.0 mg/kg/injection, schedule: Q01DX001 (ip), vehicle: saline
[2] = dose: 100.0 mg/kg/injection, schedule: Q01DX001 (ip), vehicle: saline
[3] = dose: 200.0 mg/kg/injection, schedule: Q01DX001 (ip), vehicle: saline
[4] = dose: 400.0 mg/kg/injection, schedule: Q01DX001 (ip), vehicle: saline
[5] = dose: 100.0 mg/kg/injection, schedule: Q04DX003 (ip), vehicle: saline with Tween-80
[6] = dose: 200.0 mg/kg/injection, schedule: Q04DX003 (ip), vehicle: saline with Tween-80
[7] = dose: 400.0 mg/kg/injection, schedule: Q04DX003 (ip), vehicle: saline with Tween-80
[8] = dose: 100.0 mg/kg/injection, schedule: Q01DX009 (ip), vehicle: saline
[9] = dose: 200.0 mg/kg/injection, schedule: Q01DX009 (ip), vehicle: saline
[10] = dose: 100.0 mg/kg/injection, schedule: Q04DX003 (ip), vehicle: saline
[11] = dose: 200.0 mg/kg/injection, schedule: Q04DX003 (ip), vehicle: saline
[12] = dose: 400.0 mg/kg/injection, schedule: Q04DX003 (ip), vehicle: saline
[13] = dose: 100.0 mg/kg/injection, schedule: Q01DX009 (ip), vehicle: saline with Tween-80
[14] = dose: 200.0 mg/kg/injection, schedule: Q01DX009 (ip), vehicle: saline with Tween-80
[15] = dose: 400.0 mg/kg/injection, schedule: Q01DX009 (ip), vehicle: saline with Tween-80
[16] = dose: 100.0 mg/kg/injection, schedule: Q04DX002 (ip), vehicle: Klucel (hydroxypropylcellulose) (HPC)

Measured: T/C

CC1=NN(c2ccc(S(=O)(=O)O)cc2)C(=O)/C1=C/C(C#N)C#N
inactive: [1] 105 % of control | [2] 98 % of control | dose: 100.0 mg/kg/injection, schedule: Q04DX003 (ip), vehicle: Klucel (hydroxypropylcellulose) (HPC) 92 % of control | [3] 108 % of control | dose: 200.0 mg/kg/injection, schedule: Q04DX003 (ip), vehicle: Klucel (hydroxypropylcellulose) (HPC) 105 % of control | [4] 108 % of control | dose: 400.0 mg/kg/injection, schedule: Q04DX003 (ip), vehicle: Klucel (hydroxypropylcellulose) (HPC) 94 % of control

C1C[S+]2CCN1CC2
inactive: [1] 95 % of control

CCOc1ccc(N2C(=O)CC(Sc3ccccc3N)C2=O)cc1 (centres undefined)
inactive: [5] 89 % of control | [6] 90 % of control | [7] 88 % of control

CC(=O)OCC(C(=O)O)(c1ccccc1)c1ccccc1
inactive: dose: 55.0 mg/kg/injection, schedule: Q01DX Z (ip), vehicle: methylcellulose (MC) 94 % of control | dose: 83.0 mg/kg/injection, schedule: Q01DX Z (ip), vehicle: methylcellulose (MC) 98 % of control | dose: 125.0 mg/kg/injection, schedule: Q01DX Z (ip), vehicle: methylcellulose (MC) 93 % of control

O=c1c(O)cccc2cc(O)c(O)c(O)c12
inactive: dose: 12.5 mg/kg/injection, schedule: Q01DX009 (ip), vehicle: saline 100 % of control | dose: 25.0 mg/kg/injection, schedule: Q01DX009 (ip), vehicle: saline 94 % of control and 97 % of control and 107 % of control | dose: 50.0 mg/kg/injection, schedule: Q01DX009 (ip), vehicle: saline 95 % of control and 101 % of control (2×) | [8] 101 % of control | [9] 94 % of control and 92 % of control

O=C1c2cccc3cccc(c23)C(=O)N1CC1CCCO1 (centres undefined)
inactive: dose: 100.0 mg/kg/injection, schedule: Q01DX009 (ip), vehicle: Klucel (hydroxypropylcellulose) (HPC) 94 % of control | dose: 200.0 mg/kg/injection, schedule: Q01DX009 (ip), vehicle: Klucel (hydroxypropylcellulose) (HPC) 94 % of control | dose: 400.0 mg/kg/injection, schedule: Q01DX009 (ip), vehicle: Klucel (hydroxypropylcellulose) (HPC) 87 % of control

NN(C(=O)c1ccc([N+](=O)[O-])cc1)C1CCCCC1
inactive: dose: 100.0 mg/kg/injection, schedule: Q04DX003 (ip), vehicle: acetone 96 % of control | dose: 200.0 mg/kg/injection, schedule: Q04DX003 (ip), vehicle: acetone 106 % of control | dose: 400.0 mg/kg/injection, schedule: Q04DX003 (ip), vehicle: acetone 93 % of control

O=C1CC[C@H](NC(=O)OCc2ccccc2)C(=O)O1
inactive: [5] 100 % of control | [6] 100 % of control | [7] 97 % of control

COc1cc([N+](=O)[O-])c(O)cc1O
inactive: [10] 101 % of control | [11] 100 % of control | [12] 96 % of control

ClCCN(CCCl)c1ccc(-c2csc(COc3ccccc3)n2)cc1
inactive: dose: 100.0 mg/kg/injection, schedule: Q01DX001 (ip), vehicle: carboxymethylcellulose (CMC) 102 % of control | dose: 200.0 mg/kg/injection, schedule: Q01DX001 (ip), vehicle: carboxymethylcellulose (CMC) 96 % of control | dose: 400.0 mg/kg/injection, schedule: Q01DX001 (ip), vehicle: carboxymethylcellulose (CMC) 91 % of control

NC(CS/C(Cl)=C/Cl)C(=O)O (centres undefined)
inactive: dose: 1.5 mg/kg/injection, schedule: Q01DX009 (ip), vehicle: saline 101 % of control | dose: 3.0 mg/kg/injection, schedule: Q01DX009 (ip), vehicle: saline 106 % of control | dose: 6.0 mg/kg/injection, schedule: Q01DX009 (ip), vehicle: saline 104 % of control | dose: 12.0 mg/kg/injection, schedule: Q01DX009 (ip), vehicle: saline 98 % of control | dose: 17.0 mg/kg/injection, schedule: Q01DX009 (ip), vehicle: saline 101 % of control | dose: 27.0 mg/kg/injection, schedule: Q01DX009 (ip), vehicle: saline 95 % of control

COC1OC2COC(c3ccccc3)OC2C(O)C1OS(=O)(=O)c1ccc(C)cc1 (centres undefined)
inactive: [5] 87 % of control | [6] 87 % of control

Cc1ccc(N=C2C=CC(=O)O2)cc1
inactive: [13] 98 % of control | [14] 100 % of control | [15] 95 % of control

CCN(CC)CCCC(C)NC(=O)c1cccc2c(N)cccc12 (centres undefined)
inactive: dose: 25.0 mg/kg/injection, schedule: Q01DX009 (ip), vehicle: water 110 % of control | dose: 50.0 mg/kg/injection, schedule: Q01DX009 (ip), vehicle: water 103 % of control | dose: 100.0 mg/kg/injection, schedule: Q01DX009 (ip), vehicle: water 101 % of control | dose: 200.0 mg/kg/injection, schedule: Q01DX009 (ip), vehicle: water 95 % of control | dose: 400.0 mg/kg/injection, schedule: Q01DX009 (ip), vehicle: water 103 % of control

COc1cccc(CNc2cccc(Cl)c2Cl)c1OC
inactive: [13] 103 % of control | dose: 100.0 mg/kg/injection, schedule: Q04DX003 (ip), vehicle: other 102 % of control | [14] 94 % of control | dose: 200.0 mg/kg/injection, schedule: Q04DX003 (ip), vehicle: other 96 % of control | [15] 109 % of control | dose: 400.0 mg/kg/injection, schedule: Q04DX003 (ip), vehicle: other 113 % of control

Cn1ncc2c1NC(c1ccc(F)cc1)SCC2=O (centres undefined)
inactive: dose: 400.0 mg/kg/injection, schedule: Q01DX009 (ip), vehicle: gum acacia 108 % of control

NC(CCl)=NCC1CCCCCCC1
inactive: dose: 25.0 mg/kg/injection, schedule: Q01DX009 (ip), vehicle: Klucel (hydroxypropylcellulose) (HPC) 103 % of control | dose: 25.0 mg/kg/injection, schedule: Q04DX002 (ip), vehicle: Klucel (hydroxypropylcellulose) (HPC) 100 % of control | dose: 50.0 mg/kg/injection, schedule: Q04DX002 (ip), vehicle: Klucel (hydroxypropylcellulose) (HPC) 107 % of control | [16] 101 % of control and 89 % of control

O=C(c1ccccn1)N1CCOCC1
inactive: [2] 101 % of control | [8] 98 % of control and 109 % of control | dose: 100.0 mg/kg/injection, schedule: Q04DX002 (ip), vehicle: saline 96 % of control and 116 % of control | [10] 98 % of control | [3] 105 % of control | [9] 103 % of control and 104 % of control | dose: 200.0 mg/kg/injection, schedule: Q04DX002 (ip), vehicle: saline 95 % of control and 97 % of control | [11] 98 % of control | [4] 97 % of control | dose: 400.0 mg/kg/injection, schedule: Q01DX009 (ip), vehicle: saline 95 % of control and 103 % of control | dose: 400.0 mg/kg/injection, schedule: Q04DX002 (ip), vehicle: saline 96 % of control and 103 % of control | [12] 107 % of control

CCCCCCCC(=O)Nc1cccc(O)c1
inactive: [5] 96 % of control | [6] 95 % of control | [7] 96 % of control

Nc1ccccc1CSc1nc2nc[nH]c2c(=O)[nH]1
inactive: dose: 5.0 mg/kg/injection, schedule: Q01DX009 (ip), vehicle: Klucel (hydroxypropylcellulose) (HPC) 99 % of control | dose: 10.0 mg/kg/injection, schedule: Q01DX009 (ip), vehicle: Klucel (hydroxypropylcellulose) (HPC) 97 % of control | dose: 20.0 mg/kg/injection, schedule: Q01DX009 (ip), vehicle: Klucel (hydroxypropylcellulose) (HPC) 103 % of control

O=C(/C(=C\c1ccccc1)Oc1ccc([N+](=O)[O-])cc1)c1ccccc1
inactive: [2] 88 % of control | [3] 92 % of control | [4] 95 % of control

Nc1ncnc2c1ncn2C1OC(COC(=O)C2C3CC4CC(C3)CC2C4)C(O)C1O (centres undefined)
inactive: [2] 104 % of control

Nc1nc2nc3c(nc2c(=O)[nH]1)CN(c1ccc(C(=O)O)cc1)C3=O
inactive: dose: 12.5 mg/kg/injection, schedule: Q01DX009 (ip), vehicle: saline with Tween-80 90 % of control | dose: 25.0 mg/kg/injection, schedule: Q01DX009 (ip), vehicle: saline with Tween-80 94 % of control | dose: 50.0 mg/kg/injection, schedule: Q01DX009 (ip), vehicle: saline with Tween-80 87 % of control

CC(=O)OCC1OC(OCC2OC(Sc3ccccc3)C(OC(C)=O)C(OC(C)=O)C2OC(C)=O)C(OC(C)=O)C(OC(C)=O)C1OC(C)=O (centres undefined)
inactive: [16] 89 % of control | dose: 200.0 mg/kg/injection, schedule: Q04DX002 (ip), vehicle: Klucel (hydroxypropylcellulose) (HPC) 86 % of control | dose: 400.0 mg/kg/injection, schedule: Q04DX002 (ip), vehicle: Klucel (hydroxypropylcellulose) (HPC) 86 % of control
